According to the NIST ThermoML archive (doi:10.1016/j.jct.2008.05.014):

Test: xn = mol fraction of the nth substance listed
Conditions: Liquid; for speed of sound: Pulse-echo method

CCCCCCCCCCCC [dodecane] + CCCCCCC
Conditions | mass density [kg/m3] | speed of sound [m/s]
303.17 K, 101 kPa, x2 = 0.2001 | – | 1238.5
308.11 K, 30390 kPa, x2 = 0.9391 | – | 1298.5
308.11 K, 30390 kPa, x2 = 0.97 | – | 1294.9
308.11 K, 45590 kPa, x2 = 0.9391 | – | 1376.1
308.11 K, 45590 kPa, x2 = 0.97 | – | 1373
308.11 K, 60790 kPa, x2 = 0.9391 | – | 1445.9
308.11 K, 60790 kPa, x2 = 0.97 | – | 1443.2
308.11 K, 75990 kPa, x2 = 0.9391 | – | 1509.5
308.11 K, 75990 kPa, x2 = 0.97 | – | 1507.2
308.11 K, 91180 kPa, x2 = 0.9391 | – | 1568
308.11 K, 101320 kPa, x2 = 0.4999 | – | 1649.5
308.11 K, 101320 kPa, x2 = 0.9391 | – | 1605.3
308.11 K, 101320 kPa, x2 = 0.97 | – | 1603.3
308.12 K, 101 kPa, x2 = 0 | – | 1240.2
308.12 K, 101 kPa, x2 = 0.6 | – | 1164.6
308.12 K, 101 kPa, x2 = 0.8995 | – | 1109.6
308.12 K, 15200 kPa, x2 = 0.9391 | – | 1209.5
308.12 K, 15200 kPa, x2 = 0.97 | – | 1205.4
308.12 K, 45590 kPa, x2 = 0.1014 | – | 1468.2
308.12 K, 45590 kPa, x2 = 0.4999 | – | 1432.7
308.12 K, 60790 kPa, x2 = 0.1014 | – | 1531
308.12 K, 75990 kPa, x2 = 0.1014 | – | 1589.4
308.12 K, 91180 kPa, x2 = 0.1014 | – | 1643.8
308.12 K, 91180 kPa, x2 = 0.4999 | – | 1614.6
308.12 K, 91180 kPa, x2 = 0.97 | – | 1565.8
308.12 K, 101320 kPa, x2 = 0.1014 | – | 1677.8
308.13 K, 101 kPa, x2 = 0.3002 | – | 1207.1
308.13 K, 101 kPa, x2 = 0.7002 | – | 1147.7
308.13 K, 101 kPa, x2 = 0.8 | – | 1129.6
308.13 K, 15200 kPa, x2 = 0.1014 | – | 1321.5
308.13 K, 15200 kPa, x2 = 0.4999 | – | 1278.8
308.13 K, 30390 kPa, x2 = 0.1014 | – | 1398.8
308.13 K, 30390 kPa, x2 = 0.3007 | – | 1379.7
308.13 K, 30390 kPa, x2 = 0.4999 | – | 1360.2
308.13 K, 30390 kPa, x2 = 0.5003 | – | 1360.2
308.13 K, 30390 kPa, x2 = 0.7007 | – | 1334.7
308.13 K, 45590 kPa, x2 = 0.3007 | – | 1450.6
308.13 K, 45590 kPa, x2 = 0.7007 | – | 1409.4
308.13 K, 60790 kPa, x2 = 0.4999 | – | 1498.1
308.13 K, 60790 kPa, x2 = 0.5003 | – | 1498.2
308.13 K, 60790 kPa, x2 = 0.7007 | – | 1476.6
308.13 K, 75990 kPa, x2 = 0 | – | 1596.8
308.13 K, 75990 kPa, x2 = 0.4999 | – | 1558.1
308.13 K, 75990 kPa, x2 = 0.5003 | – | 1558.2
308.13 K, 75990 kPa, x2 = 0.7007 | – | 1537.9
308.13 K, 91180 kPa, x2 = 0 | – | 1650.9
308.13 K, 91180 kPa, x2 = 0.3007 | – | 1629.5
308.13 K, 91180 kPa, x2 = 0.5003 | – | 1614.7
308.13 K, 91180 kPa, x2 = 0.7007 | – | 1595.3
308.13 K, 101320 kPa, x2 = 0.3007 | – | 1664.1
308.13 K, 101320 kPa, x2 = 0.5003 | – | 1649.8
308.13 K, 101320 kPa, x2 = 0.7007 | – | 1631.3
308.14 K, 101 kPa, x2 = 0.3996 | – | 1194.1
308.14 K, 15200 kPa, x2 = 0 | – | 1331
308.14 K, 15200 kPa, x2 = 0.3007 | – | 1300.4
308.14 K, 15200 kPa, x2 = 0.5003 | – | 1278.7
308.14 K, 15200 kPa, x2 = 0.7007 | – | 1250.1
308.14 K, 30390 kPa, x2 = 0 | – | 1407.6
308.14 K, 45590 kPa, x2 = 0 | – | 1476.3
308.14 K, 45590 kPa, x2 = 0.5003 | – | 1432.6
308.14 K, 60790 kPa, x2 = 0 | – | 1538.6
308.14 K, 60790 kPa, x2 = 0.3007 | – | 1515
308.14 K, 75990 kPa, x2 = 0.3007 | – | 1574.3
308.15 K, 101 kPa, x2 = 0 | 738.031 | –
308.15 K, 101 kPa, x2 = 0.0991 | 733.816 | –
308.15 K, 101 kPa, x2 = 0.1007 | – | 1230
308.15 K, 101 kPa, x2 = 0.2001 | – | 1219
308.15 K, 101 kPa, x2 = 0.2008 | 729.111 | –
308.15 K, 101 kPa, x2 = 0.2998 | 724.073 | –
308.15 K, 101 kPa, x2 = 0.3996 | 718.583 | –
308.15 K, 101 kPa, x2 = 0.5 | 712.522 | –
308.15 K, 101 kPa, x2 = 0.5002 | – | 1179.8
308.15 K, 101 kPa, x2 = 0.6 | 705.898 | –
308.15 K, 101 kPa, x2 = 0.7005 | 698.575 | –
308.15 K, 101 kPa, x2 = 0.7995 | 690.497 | –
308.15 K, 101 kPa, x2 = 0.8486 | 686.148 | –
308.15 K, 101 kPa, x2 = 0.8988 | 681.426 | –
308.15 K, 101 kPa, x2 = 0.9498 | 676.348 | –
308.15 K, 15200 kPa, x2 = 0.8496 | – | 1227.4
308.15 K, 30390 kPa, x2 = 0.8496 | – | 1314.4
308.15 K, 45590 kPa, x2 = 0.8496 | – | 1390.8
308.15 K, 60790 kPa, x2 = 0.8496 | – | 1459.7
308.15 K, 75990 kPa, x2 = 0.8496 | – | 1522.3
308.15 K, 91180 kPa, x2 = 0.8496 | – | 1580.4
308.15 K, 101320 kPa, x2 = 0.8496 | – | 1617.2
313.08 K, 15200 kPa, x2 = 0.9391 | – | 1191.3
313.08 K, 30390 kPa, x2 = 0.9391 | – | 1281.8
313.08 K, 45590 kPa, x2 = 0.9391 | – | 1360.6
313.08 K, 60790 kPa, x2 = 0.9391 | – | 1431.4
313.08 K, 75990 kPa, x2 = 0.9391 | – | 1495.6
313.08 K, 91180 kPa, x2 = 0.9391 | – | 1554.5
313.08 K, 101320 kPa, x2 = 0.4999 | – | 1636.7
313.08 K, 101320 kPa, x2 = 0.9391 | – | 1592.1
313.09 K, 30390 kPa, x2 = 0.97 | – | 1278.1
313.09 K, 45590 kPa, x2 = 0.97 | – | 1357.5
313.09 K, 60790 kPa, x2 = 0.4999 | – | 1483.8
313.09 K, 60790 kPa, x2 = 0.97 | – | 1428.5
313.09 K, 75990 kPa, x2 = 0.4999 | – | 1544.2
313.09 K, 75990 kPa, x2 = 0.97 | – | 1493.1
313.09 K, 91180 kPa, x2 = 0.4999 | – | 1601.2
313.09 K, 91180 kPa, x2 = 0.97 | – | 1552.3
313.09 K, 101320 kPa, x2 = 0.97 | – | 1589.9
313.1 K, 101 kPa, x2 = 0 | – | 1221
313.1 K, 101 kPa, x2 = 0.6 | – | 1144.4
313.1 K, 101 kPa, x2 = 0.8995 | – | 1088.5
313.1 K, 15200 kPa, x2 = 0.4999 | – | 1261.2
313.1 K, 15200 kPa, x2 = 0.97 | – | 1186.9
313.1 K, 30390 kPa, x2 = 0.4999 | – | 1344.1
313.1 K, 45590 kPa, x2 = 0.4999 | – | 1417.6
313.1 K, 60790 kPa, x2 = 0.7007 | – | 1462.1
313.1 K, 91180 kPa, x2 = 0.7007 | – | 1581.9
313.1 K, 101320 kPa, x2 = 0.1014 | – | 1665
313.11 K, 101 kPa, x2 = 0.3002 | – | 1187.6
313.11 K, 101 kPa, x2 = 0.3996 | – | 1174.4
313.11 K, 101 kPa, x2 = 0.7002 | – | 1127.3
313.11 K, 15200 kPa, x2 = 0.1014 | – | 1304
313.11 K, 15200 kPa, x2 = 0.3007 | – | 1282.9
313.11 K, 15200 kPa, x2 = 0.7007 | – | 1232.2
313.11 K, 30390 kPa, x2 = 0.1014 | – | 1382.7
313.11 K, 30390 kPa, x2 = 0.3007 | – | 1363.6
313.11 K, 30390 kPa, x2 = 0.5003 | – | 1344.2
313.11 K, 30390 kPa, x2 = 0.7007 | – | 1318.2
313.11 K, 45590 kPa, x2 = 0.1014 | – | 1453
313.11 K, 45590 kPa, x2 = 0.5003 | – | 1417.5
313.11 K, 45590 kPa, x2 = 0.7007 | – | 1393.8
313.11 K, 60790 kPa, x2 = 0.1014 | – | 1516.7
313.11 K, 60790 kPa, x2 = 0.5003 | – | 1483.9
